Experiments:
[1] = target: T1, HSF1 occupancy of the hspa1a promoter (Homo sapiens, UniProt Q00613); experiment: Chromatin immunoprecipitation, HSF1 occupancy of hspa1a promoter in HeLa cells; assay type: cell-based; conditions: 12.5 μM for two hours, then heat-treated
T1 construct: functionally linked to an hsp70b promoter and therefore controlled by endogenous HSF1; endogenous in cells; host or cells: HeLa cells / HeLa-derived cell line Z74
Experimental: FIG. 3. (A) HeLa cell cultures were mock-treated (−) or exposed for 2 hours to the indicated concentrations of compounds 058 or 115 and then heat-treated (HS) at 43° C. for 30 min. Top panels: HSF1 DNA-binding activities in cell extracts were determined by EMSA. The panels show the major HSF1-HSE DNA probe complexes. Middle panels: HSF1 levels assayed by western blot (WB). GAPDH served as a loading control. Bottom panels: HSF1 homooligomerization. Aliquots of extracts were EGS-treated and then analyzed by anti-HSF1 WB. The positions of pre-stained molecular weight marker proteins (MW, in thousands) are indicated to the right. Asterisks indicate the positions of monomeric and trimeric HSF1, respectively. (B) Relative occupancy of the hspa1a promoter was assessed by chromatin immunoprecipitation assay of HeLa cell cultures mock-treated (−) or treated with compounds 058 or 115 at 12.5 μM concentrations for 2 hours and then heat-treated (HS) at 43° C. for 30 min. Chromatin fragments were immunoprecipitated using HSF1 antibodies or an F4/80 LR (control) antibody, and associated hspa1a promoter DNA was quantified by real-time PCR.
We also investigated whether the compounds were capable of interfering with HSF1 oligomerization. Aliquots of the extracts were subjected to cross-linking with EGS (ethylene glycolbis(succinimidylsuccinate)) and then re-analyzed by anti-HSF1 WB. […]

HSF1-ATF1 interaction = target: T2, HSF1-ATF1 interaction (Homo sapiens, UniProt Q00613); experiment: Anti-FLAG immunoprecipitation of FLAG-tagged HSF1 and WB (HSF1-ATF1 interaction); assay type: cell-based; conditions: HeLa-derived line expressing FLAG-tagged HSF1, heat-treated 30 min at 43° C.
T2 construct: expressed in transfected cells; host or cells: HeLa-derived cell line stably expressing HSF1-FLAG
T2 sequence (Q00613 whole entry): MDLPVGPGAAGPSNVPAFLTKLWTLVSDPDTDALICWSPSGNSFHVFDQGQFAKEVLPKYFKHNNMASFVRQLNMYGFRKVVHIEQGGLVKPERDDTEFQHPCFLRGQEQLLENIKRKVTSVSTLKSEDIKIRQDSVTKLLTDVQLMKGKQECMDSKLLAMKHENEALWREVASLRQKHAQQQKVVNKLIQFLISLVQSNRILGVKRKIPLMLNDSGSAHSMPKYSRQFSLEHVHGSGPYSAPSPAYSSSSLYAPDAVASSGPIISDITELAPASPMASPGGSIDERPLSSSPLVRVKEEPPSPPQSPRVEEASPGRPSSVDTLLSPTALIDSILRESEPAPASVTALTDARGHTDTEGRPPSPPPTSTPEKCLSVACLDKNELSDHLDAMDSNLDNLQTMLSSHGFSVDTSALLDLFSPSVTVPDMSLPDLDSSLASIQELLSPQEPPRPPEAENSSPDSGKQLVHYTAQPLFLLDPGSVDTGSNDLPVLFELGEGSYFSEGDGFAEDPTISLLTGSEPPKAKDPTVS
Source text: Recruitment of HSF1 to target promoters in response to a stress is mediated by ATF1/CREB. Takii, R. et al. (2015) Mol. Cell. Biol. 35: 11-25. ATF1/CREB regulates the stress-induced HSF1 transcription complex that includes BRG1 chromatin-remodeling complex and p300/CBP. The former complex promotes an active chromatin state in the promoters, whereas p300/CBP accelerates the shutdown of HSF1 DNA-binding activity as well as stabilizes HSF1 against proteasomal degradation during recovery from stress. To assess the effects of the IHSF on the assembly of the transcription complex, use was made of a HeLa-derived cell line that stably expresses a C-terminally FLAG-tagged HSF1. Cultures were heat-treated for 30 min at 43° C. in the presence or absence of IHSF 115, extracts were prepared, and tagged HSF1 was immunoprecipitated using an anti-FLAG antibody.

HeLa cells = experiment: Annexin V/7 aminoactinomycin D double staining assay; assay type: cell-based, human; conditions: 25 μM for up to 24 hours
Experimental: FIG. 6. (A) HeLa cell cultures were mock-exposed (−) or exposed to the indicated concentrations of compound 115 for 24 (left panel) or 96 (right panel) hours. Cell viability of total cultures, floating cells and attached cells was assayed using an Alamar Blue assay. (B) HeLa cell cultures were mock-exposed (−) or exposed to the indicated concentrations of compound 115 for 15-96 hours. Trypan Blue dye exclusion was employed to determine numbers of live cells (left panel) and relative levels of necrotic cells (right panel). (C) HeLa cell cultures were mock-exposed (−) or exposed to the indicated concentrations of compound 115 for 6 and 24 h. Shown are relative levels of early apoptotic cells (annexin-positive, 7 aminoactinomycin D-negative). (D) Flow cytometric analysis of DNA of HeLa cell cultures mock-exposed (−) or exposed to the indicated concentrations of compound 115 for 6, 15 and 24 hours. Relative levels of apoptotic cells are indicated.
Further studies were aimed at finding out whether IHSF-exposed cancer cells were only growth-arrested or were actually killed and, if they were killed, by what mechanism. […] The viability signal (in whole cultures and, more dramatically, when only attached cells were analyzed) decreased as a function of IHSF concentration. […] Stained (necrotic) and unstained (live) cells were counted (FIG. 6B). […]

[2] = tested on: KD 13 (HeLa-derived, HSF1 siRNA); experiment: Alamar Blue assay of HSF1-deficient KD 13 line versus KD control cells; assay type: cell-based, human; conditions: 96 hours exposure, different concentrations
Experimental: FIG. 7. (A) Upper panel: HSF1 levels in cultures of KD control and KD13 cells as assayed by WB. Lower panel: number of alive KD control and KD13 cells after 1-4 days of culture as determined by Trypan Blue dye exclusion. […] Cell viability was assayed by Alamar Blue assay.
The most severely HSF1-deficient lines grew slowly. FIG. 7 reports on the properties of one such line, KD 13, which was compared to control lentivirus-transduced cells (KD control). The WB in FIG. 7A (upper panel) confirms that the KD 13 line is essentially devoid of HSF1. The lower panel compares growth of the cell line with that of the control cells (the graph showing numbers of Trypan Blue-excluding (live) cells after 1-4 days of culture). We conclude that the KD 13 line has partially overcome its HSF1 dependency.

T1 sequence (Q00613 whole entry): as above

## CN(C(=O)/C=C/C1=NCCCO1)c1ncc(-c2cccnc2)s1 [IHSF 115, (E)-3-(5,6-Dihydro-4H-[1,3]oxazin-2-yl)-N-methyl-N-(5-pyridin-3-yl-thiazol-2-yl)-acrylamide]
[1]
  HSF1 occupancy of the hspa1a promoter (ChIP): not reduced substantially
HSF1-ATF1 interaction
  HSF1-ATF1 interaction (co-immunoprecipitation, WB): dramatically reduced
HeLa cells
  live cells annexin V-stained: no more than 15%
[2]
  resistance of KD 13 line versus control lentivirus-transduced cells to killing: more resistant to killing

— patent publication US11597708B2, “Inhibitors of heat shock factors and uses thereof” (HSF Pharmaceuticals SA, priority 2016, dated 2023)
